Experimental data as given in patent publication US8846750B2, “Pharmaceutical and food compositions for preventing or treating diabetes or obesity” (Korea Ocean Research and Development Institute, priority 2010, dated 2014).
Values joined by “and” are separate entries in the source; they are usually repeats but may differ in a detail not shown here. Identical values can stand only once.

Experiments:
[1] = target: T1, PTP-1b (protein tyrosine phosphatase-1b) (Homo sapiens, UniProt P18031); experiment: PTP-1b inhibitory activity, malachite green assay with [pTyr1146] insulin receptor substrate; type: biochemical; conditions: PTP-1b (Bioneer), absorbance at 620 nm; read-out: IC50 against PTP-1b
T1 construct: purchased Bioneer, Korea
T1 sequence (P18031 1-435): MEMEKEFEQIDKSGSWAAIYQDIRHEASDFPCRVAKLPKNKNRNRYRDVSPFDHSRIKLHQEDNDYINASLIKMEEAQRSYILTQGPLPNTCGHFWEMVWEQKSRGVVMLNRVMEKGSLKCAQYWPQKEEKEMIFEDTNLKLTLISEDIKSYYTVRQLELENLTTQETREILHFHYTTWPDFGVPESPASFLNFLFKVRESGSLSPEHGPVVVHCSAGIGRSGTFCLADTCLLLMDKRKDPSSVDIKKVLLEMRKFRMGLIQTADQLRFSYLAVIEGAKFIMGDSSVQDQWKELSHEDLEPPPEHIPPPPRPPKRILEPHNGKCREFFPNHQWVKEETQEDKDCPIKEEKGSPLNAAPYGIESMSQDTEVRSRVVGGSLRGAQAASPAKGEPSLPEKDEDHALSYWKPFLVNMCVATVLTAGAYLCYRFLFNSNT
Protocol: In order to analyze the PTP-1b (protein tyrosine phosphatase-1b) inhibitory activity of sodium lobarate, the activity of the enzyme was spectroscopically measured.
(§1) Specifically, to 0.5 mg/Ml of PTP-1b (Bioneer, Korea) in PTP-1b buffer (20 mM Tris-HCl, pH 8.0, 0.75 mM NaCl, 0.5 mM EDTA, 5 mM β-mercaptoethanol, 50% glycerol), 0, 1, 3, 10, 30, 100, 300, 1,000 and 3,000 nM of sodium lobarate and the substrate [pTyr1146] insulin receptor (1142-1153, Sigma, USA) were added. Each mixture was allowed to react at room temperature for 10-30 minutes, and malachite green-molybdate dye solution was added thereto and reacted at room temperature for 10 minutes. After completion between PTP-1b, sodium lobarate and the substrate, the absorbance at 620 nm was measured.
The activity of the enzyme was spectroscopically measured to analyze the protein PTP-1b inhibitory activity of Lobarin.
as §1, with “Tris-HCL,” for “Tris-HCl,”, “1000 or 3000” for “1,000 and 3,000”, “Lobarin” for “of sodium lobarate”, “of the mixtures” for “mixture”, “Lobarin” for “sodium lobarate”
The activity of the enzyme was spectroscopically measured to analyze the protein PTP-1b inhibitory activity of Lobarstin. Specifically, to 0.5 mg/Ml of PTP-1b (Bioneer, Korea) in PTP-1b buffer (20 mM Tris-HCL, pH 8.0, 0.75 mM NaCl, 0.5 mM EDTA, 5 mM β-mercaptoethanol, 50% glycerol), 0, 1, 3, 10, 30, 100, 300, 1000 or 3000 nM Lobarstin and the substrate [pTyr1146] insulin receptor (1142-1153, Sigma, USA) were added. […] After completion between PTP-1b, Lobarstin and the substrate, the absorbance at 620 nm was measured.

[2] = tested on: db/db mice (type 2 diabetic model animals); experiment: Change in blood glucose level after intraperitoneal administration; type: in vivo; conditions: 10 mg/kg intraperitoneally daily; for increase in the blood glucose level compared with control group: days 0-21; for average blood glucose level: db/db mice
Protocol: (§2) Based on pre-tests, effectiveness tests and toxicity tests for sodium lobarate, dose (expressed as test compound amount (mg)/test animal's weight (kg)) was determined. To 7-week-old male db/db mice (type 2 diabetic model animals, C57/BLKS/J-db/db, the Korea Research Institute of Bioscience and Biotechnology), 200 μl of PBS for a control group and 10 mg/kg of sodium lobarate (PTP-1b activity inhibitory compound) for a test group was administered, respectively, intraperitoneally daily, and the blood glucose levels of the animals were measured twice a week.
Specifically, sodium lobarate (PTP-1b activity inhibitory compound) was administered by intraperitoneal injection to 7-week-old male db/db mice (type 2 diabetic model animals, C57/BLKS/J-db/db, the Korea Research Institute of Bioscience and Biotechnology), and the change in the blood glucose level of the animals was measured.
as §2, with “Lobarin,” for “sodium lobarate,”, “Lobarin” for “sodium lobarate (PTP-1b activity inhibitory compound)”
Specifically, Lobarin was administered by intraperitoneal injection to 7-week-old male db/db mice (type 2 diabetic model animals, C57/BLKS/J-db/db, the Korea Research Institute of Bioscience and Biotechnology), and the change in blood glucose level of the animals was measured.
as §2, with “Lobarstin,” for “sodium lobarate,”, “Lobarstin” for “sodium lobarate (PTP-1b activity inhibitory compound)”
Specifically, Lobarstin was administered by intraperitoneal injection to 7-week-old male db/db mice (type 2 diabetic model animals, C57/BLKS/J-db/db, the Korea Research Institute of Bioscience and Biotechnology), and the change in blood glucose level of the animals was measured.

| IC50 [1] | Structure (SMILES) | increase in the blood glucose level compared with control group [2] | average blood glucose level ([2]; day 0) [mg/dL] | average blood glucose level ([2]; day 3) [mg/dL] | average blood glucose level ([2]; day 7) [mg/dL] | average blood glucose level ([2]; day 10) [mg/dL] | average blood glucose level ([2]; day 14) [mg/dL] | average blood glucose level ([2]; day 17) [mg/dL] | average blood glucose level ([2]; day 21) [mg/dL] |
| --- | --- | --- | --- | --- | --- | --- | --- | --- | --- |
| 149 nM and 155 nM | CCCCCc1c(Oc2cc(OC)cc3c2C(=O)OC3(O)CCCC)c(O)cc(O)c1C(=O)O (stereo not drawn) [Lobarin] | less than that in the control group | 267 | 278 | 298 | 315 | 352 | 379 | 425 |
| 155 nM | CCC/C=C1/OC(=O)c2c(Oc3c(O)cc(O)c(C(=O)O)c3CCCCC)cc(OC)cc21 [Lobarstin] | less than that in the control group | 299 |  | 259 |  | 267 |  | 242 |
| 350 nM | CCCCCc1c2c(cc(O)c1C(=O)[O-])OC(=O)c1c(cc(OC)cc1C(=O)CCCC)O2.[Na+] [sodium lobarate] | less than that in the control group | 267 | 276 | 378 | 378 | 407 | 415 | 459 |
